Measurements: US11952382B1, “2-benzo-[3,4-b]quinolino-[b,g]indeno[1,2:3,4]fluoreno-[1,2-d]oxonine-24-flouro-5,11,16,21-tetraone as an antimicrobial compound” (KING FAISAL UNIVERSITY, priority 2023, dated 2024)

Key:
Format in all cases: cell-based
Details in all cases: after 10, 20, 40 and 60 minutes at all dilutions 1:100, 1:200, 1:400, 1:800
Pseudomonas aeruginosa = experiment: Antimicrobial screening by agar dilution, Pseudomonas aeruginosa
Experimental: (§1) The antibacterial properties of the synthesized compound 2-benzo-[3,4-b]quinolino-[b,g]indeno[1′,2′:3,4]fluoreno-[1,2-d]oxonine-24-flouro-5,11,16,21-tetraone were studied by the method of agar dilution. Test solutions of each compound was prepared in concentration of 1% using dimethylformamide as a solvent then they are diluted in physiological solution to obtain the final experimental dilutions 1:100, 1:200, 1:400, 1:800. The effect of these substances are compared with furacillin in a controllable study. The testing microbes used were gram positive bacteria Staphylococcus aureus, gram negative bacteria Pseudomonas aeruginosa and Escherichia coli and Candida albicans fungus. The experiments used for this survey were meat-pentonlu agar (EPA) for cultivation of bacteria and Saburo environment for the fungus. Each experiment used 1 mL of test solution on each plate […]. Two drops of emulsified with microbes feel were added. All experimental samples were taken from the agar after 10, 20, 40, 60 minutes in the environment on the basis of Patrk planted. The bacteria were cultivated at a temperature of 37° C. for 1 day and the mushroom was kept in a thermostat for 2 hours at a temperature of 28° C. Then results were checked.

Staphylococcus aureus = experiment: Antimicrobial screening by agar dilution, Staphylococcus aureus
Experimental: as §1

Candida albicans = experiment: Antimicrobial (antifungal) screening by agar dilution, Candida albicans
Experimental: as §1

Escherichia coli = experiment: Antimicrobial screening by agar dilution, Escherichia coli
Experimental: as §1

Measured: inhibition activity

O=C1Oc2nc3ccc(F)cc3cc2-c2c(c3c4ccccc4c(=O)c3c3c2c(=O)c2ccccc23)C(=O)c2ccccc21 [2-benzo-[3,4-b]quinolino-[b,g]indeno[1′,2′:3,4]fluoreno-[1,2-d]oxonine-24-flouro-5,11,16,21-tetraone]
highest inhibition activity: Pseudomonas aeruginosa | Staphylococcus aureus | Candida albicans | Escherichia coli
